As usually defined, the half-life is how long it takes for the measured level to halve. For orientation: GI50 means the concentration that inhibits growth by half. A word on the IC50: it is the concentration needed to halve the response being measured. A lower IC50 goes with higher potency.

This is an account of results in ChEMBL document CHEMBL5550190 (J Med Chem, 2024).

Series [1] is described as follows: Metabolic stability in mouse liver microsomes assessed as half life at 100 uM preincubated for 5 mins followed by NADPH addition and measured upto 60 mins by LC-MS/MS analysis. It counts as ADME, Microsome. The note with it: time < 65 min.
A short description of series [2]: Metabolic stability in human liver microsomes assessed as half life at 100 uM preincubated for 5 mins followed by NADPH addition and measured upto 60 mins by LC-MS/MS analysis. In kind it is ADME, Microsome. Particulars: time < 65 min. In general terms: Liver microsomes are a subcellular fraction often used to study metabolism.
The nature of series [3]: Metabolic stability in mouse liver microsomes assessed as half life at 100 uM measured upto 60 mins by LC-MS/MS analysis. It counts as ADME, Microsome. Particulars: 1 h.
Series [4] can be described thus: Metabolic stability in human liver microsomes assessed as half life at 100 uM measured upto 60 mins by LC-MS/MS analysis. In kind it is ADME, Microsome. Particulars: 1 h.
Series [5] has as its target T1, CYP1A2 (Homo sapiens, UniProt P05177).
T1 sequence (P05177 whole entry): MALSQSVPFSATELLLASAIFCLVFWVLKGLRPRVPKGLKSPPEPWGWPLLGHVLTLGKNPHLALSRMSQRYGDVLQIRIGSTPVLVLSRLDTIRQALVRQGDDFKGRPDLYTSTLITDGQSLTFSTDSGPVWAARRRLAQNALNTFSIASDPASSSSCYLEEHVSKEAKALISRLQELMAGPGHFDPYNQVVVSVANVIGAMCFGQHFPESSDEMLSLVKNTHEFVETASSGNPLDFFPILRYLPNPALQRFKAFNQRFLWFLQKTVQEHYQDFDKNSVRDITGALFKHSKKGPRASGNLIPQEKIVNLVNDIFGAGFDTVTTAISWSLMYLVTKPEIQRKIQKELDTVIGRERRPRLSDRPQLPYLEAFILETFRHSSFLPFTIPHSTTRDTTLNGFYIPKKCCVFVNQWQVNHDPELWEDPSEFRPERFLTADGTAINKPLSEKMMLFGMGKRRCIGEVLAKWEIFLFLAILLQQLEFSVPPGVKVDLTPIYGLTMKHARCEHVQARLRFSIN
Briefly: Drug metabolism in human liver microsomes assessed as CYP1A2-mediated metabolism by measuring increase in half life in presence of furafylline (reference value: 10.8 mins). In kind it is ADME, Microsome. Particulars: with furafylline.

The target in series [6] is CYP2C9 (Homo sapiens, UniProt P11712). Briefly: Drug metabolism in human liver microsomes assessed as CYP2C9-mediated metabolism by measuring increase in half life in presence of sulfaphenazole (reference value: 10.8 mins). In kind it is ADME, Microsome. The note with it: with sulfaphenazole.
Sequence of CYP2C9 (P11712 whole entry): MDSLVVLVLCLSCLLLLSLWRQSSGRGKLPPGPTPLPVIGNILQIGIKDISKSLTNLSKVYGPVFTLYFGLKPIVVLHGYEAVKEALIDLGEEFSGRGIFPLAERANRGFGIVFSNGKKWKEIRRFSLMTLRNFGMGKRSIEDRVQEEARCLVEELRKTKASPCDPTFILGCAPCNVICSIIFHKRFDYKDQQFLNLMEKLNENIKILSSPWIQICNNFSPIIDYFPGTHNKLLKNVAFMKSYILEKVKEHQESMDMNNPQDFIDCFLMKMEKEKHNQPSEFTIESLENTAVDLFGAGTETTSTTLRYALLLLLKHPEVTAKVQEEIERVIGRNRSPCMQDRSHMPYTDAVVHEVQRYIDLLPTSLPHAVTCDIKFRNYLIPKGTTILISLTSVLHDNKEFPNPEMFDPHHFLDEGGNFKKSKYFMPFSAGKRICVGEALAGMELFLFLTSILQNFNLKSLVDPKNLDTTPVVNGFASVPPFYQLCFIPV
Series [7] has as its target CYP2C19 (Homo sapiens, UniProt P33261). Briefly: Drug metabolism in human liver microsomes assessed as CYP2C19-mediated metabolism by measuring increase in half life in presence of (+)-N-3-benzylnirvanol (reference value: 10.8 mins). The note with it: with (+)-N-3-benzylnirvanol. It counts as ADME, Microsome.
For series [8], the target named is CYP2D6 (Homo sapiens, UniProt P10635). Briefly: Drug metabolism in human liver microsomes assessed as CYP2D6-mediated metabolism by measuring increase in half life in presence of quinidine (reference value: 10.8 mins). In kind it is ADME, Microsome. The note with it: with quinidine.
Sequence of CYP2D6 (P10635 whole entry): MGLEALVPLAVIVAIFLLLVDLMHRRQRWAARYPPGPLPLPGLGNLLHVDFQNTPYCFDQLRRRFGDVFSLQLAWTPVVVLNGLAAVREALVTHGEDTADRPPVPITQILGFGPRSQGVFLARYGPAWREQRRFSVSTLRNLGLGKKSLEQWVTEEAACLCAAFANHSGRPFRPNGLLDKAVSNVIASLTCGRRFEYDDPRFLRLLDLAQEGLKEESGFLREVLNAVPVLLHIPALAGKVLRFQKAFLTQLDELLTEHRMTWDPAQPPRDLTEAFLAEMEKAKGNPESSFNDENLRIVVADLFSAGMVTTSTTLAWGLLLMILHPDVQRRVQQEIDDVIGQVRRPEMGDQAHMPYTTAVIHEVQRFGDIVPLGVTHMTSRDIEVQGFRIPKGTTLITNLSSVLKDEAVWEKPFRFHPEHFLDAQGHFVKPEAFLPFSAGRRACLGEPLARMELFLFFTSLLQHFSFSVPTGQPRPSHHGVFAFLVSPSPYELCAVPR
Series [9] concerns the target CYP3A4 (Homo sapiens, UniProt P08684). Briefly: Drug metabolism in human liver microsomes assessed as CYP3A4-mediated metabolism by measuring increase in half life in presence of ketoconazole (reference value: 10.8 mins). Particulars: with ketoconazole. It counts as ADME, Microsome.
Series [10] in a line: Drug metabolism in mouse liver microsomes assessed as M1 metabolite formation at 10 uM after 30 mins in presence of NADPH by LC-MS/MS analysis. It counts as ADME, Microsome. The note with it: 0.5 h.
The nature of series [11]: Drug metabolism in mouse liver microsomes assessed as M2 metabolite formation at 10 uM after 30 mins in presence of NADPH by LC-MS/MS analysis. It counts as ADME, Microsome. Particulars: 0.5 h.
Series [12] is described as follows: Drug metabolism in mouse liver microsomes assessed as M3 metabolite formation at 10 uM after 30 mins in presence of NADPH by LC-MS/MS analysis. It counts as ADME, Microsome. The note with it: 0.5 h.
Series [13] deals with A549. Briefly: Antitumor activity against human A549 cells incubated for 48 hrs. In kind it is functional.
Series [14] has as its system HCT-116. Briefly: Antitumor activity against human HCT-116 cells incubated for 48 hrs. In kind it is functional.
Series [15] concerns Hs-578T. Briefly: Antitumor activity against human Hs-578T cells incubated for 48 hrs. In kind it is functional.
A short description of series [16]: Protein binding in human plasma at 5 uM incubated for 5 hrs by LC-MS/MS analysis. In kind it is ADME, cell-free. The note with it: read-out: PPB.
Series [17] in a line: Protein binding in mouse plasma at 5 uM incubated for 5 hrs by LC-MS/MS analysis. It counts as ADME, cell-free. The note with it: read-out: PPB.
Series [18] relates to MDA-MB-231. Briefly: Antitumor activity against human MDA-MB-231 cells incubated for 48 hrs by Celltiter Blue reagent based 2D microtiter assay. In kind it is functional.
The subject of series [19] is MDA-MB-231. Briefly: Antitumor activity against human MDA-MB-231 cells incubated for 48 hrs in presence of 1.5% BSA by Celltiter Blue reagent based 2D microtiter assay. It counts as functional. (Resazurin is reduced to fluorescent resorufin, in cell work by metabolically active cells.)
The test system of series [20] is MDA-MB-231. Briefly: Antitumor activity against human MDA-MB-231 cells incubated for 48 hrs by Celltiter Blue reagent based 3D microtiter assay. In kind it is functional.
Series [21] relates to MDA-MB-231. Briefly: Antitumor activity against human MDA-MB-231 cells incubated for 48 hrs in presence of 1.5% BSA by Celltiter Blue reagent based 3D microtiter assay. It counts as functional.
Series [22] is described as follows: Intrinsic clearance in human hepatocytes measured per million cells incubated for 120 mins by LC-MS/MS analysis. In kind it is ADME, cell-based, Hepatocyte. Particulars: read-out: CLH.
Series [23] concerns BMDM. Briefly: Growth inhibition of mouse BMDMs. It counts as functional, cell-based.
The target in series [24] is Cannabinoid receptor 2 (Homo sapiens, UniProt P34972). Briefly: Inhibition of CB2 (unknown origin). It counts as single protein.
Sequence of Cannabinoid receptor 2 (P34972 whole entry): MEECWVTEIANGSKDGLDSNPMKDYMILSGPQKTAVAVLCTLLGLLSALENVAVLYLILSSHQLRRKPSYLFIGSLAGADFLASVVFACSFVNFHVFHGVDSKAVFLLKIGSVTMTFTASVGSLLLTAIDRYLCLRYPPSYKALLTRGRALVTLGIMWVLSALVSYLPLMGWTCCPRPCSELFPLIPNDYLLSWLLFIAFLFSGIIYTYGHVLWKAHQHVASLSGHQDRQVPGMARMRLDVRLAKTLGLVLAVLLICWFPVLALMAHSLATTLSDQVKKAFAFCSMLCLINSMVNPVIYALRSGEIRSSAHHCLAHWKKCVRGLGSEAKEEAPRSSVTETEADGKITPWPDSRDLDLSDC

Sequence of CYP3A4 (P08684 whole entry): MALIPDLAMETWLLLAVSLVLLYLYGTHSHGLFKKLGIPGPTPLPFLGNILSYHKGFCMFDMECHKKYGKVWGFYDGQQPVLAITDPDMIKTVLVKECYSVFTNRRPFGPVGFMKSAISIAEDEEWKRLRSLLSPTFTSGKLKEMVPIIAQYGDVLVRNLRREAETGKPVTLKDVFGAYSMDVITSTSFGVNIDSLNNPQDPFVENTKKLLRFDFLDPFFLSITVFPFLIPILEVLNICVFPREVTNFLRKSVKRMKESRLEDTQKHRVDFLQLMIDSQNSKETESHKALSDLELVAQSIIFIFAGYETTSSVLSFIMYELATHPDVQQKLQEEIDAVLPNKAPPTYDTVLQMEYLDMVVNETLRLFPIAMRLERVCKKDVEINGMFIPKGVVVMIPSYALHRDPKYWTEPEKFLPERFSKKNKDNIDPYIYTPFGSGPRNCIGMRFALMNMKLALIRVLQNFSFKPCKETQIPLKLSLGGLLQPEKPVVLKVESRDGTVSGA
Sequence of CYP2C19 (P33261 whole entry): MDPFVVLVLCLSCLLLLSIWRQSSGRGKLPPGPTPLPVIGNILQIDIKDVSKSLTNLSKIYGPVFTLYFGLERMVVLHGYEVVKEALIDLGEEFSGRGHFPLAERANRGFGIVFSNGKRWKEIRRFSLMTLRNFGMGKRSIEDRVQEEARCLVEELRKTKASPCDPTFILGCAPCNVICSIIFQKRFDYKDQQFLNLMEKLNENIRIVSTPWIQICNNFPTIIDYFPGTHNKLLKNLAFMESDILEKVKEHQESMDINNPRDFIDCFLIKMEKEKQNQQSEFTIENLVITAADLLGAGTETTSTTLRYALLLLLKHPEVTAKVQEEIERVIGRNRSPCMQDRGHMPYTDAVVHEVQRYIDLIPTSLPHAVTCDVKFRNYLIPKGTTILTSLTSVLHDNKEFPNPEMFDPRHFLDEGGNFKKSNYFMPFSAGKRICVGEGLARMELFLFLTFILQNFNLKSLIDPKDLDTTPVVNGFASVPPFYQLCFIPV

Turning to `CCN(CC)C(=O)C[C@H]1C(=O)Nc2cc(NC(=O)c3cc(OC)c(OC)c(OC)c3Br)c(Oc3cc(C)cc(C)c3)cc2C(=O)N1C`, the half-life at 100 µM was 13.8 min in series [1] and 11 min in series [2]. Also, the Stability entry in [3] and in series [4] was “Stable” each time. For the same molecule, the half-life in series [5] was 11.4 min; in [6] it was 16.6 min; in series [7], 11.7 min; in series [8], 11.6 min; in series [9] it was 866 min. For the same molecule, the Drug metabolism result in series [10], in [11] and in series [12] was “Metabolite_Detected” throughout. Also, the GI50 is below 5 nM in series [13]; below 5 nM in series [14]; 5.4 nM in series [15]; below 1 nM in series [18]; 3.39 nM in series [19]; 109 nM in [20]. The GI50 in series [21] was 53.2 nM. The fraction unbound at 5 h, 5 µM in series [16] and in series [17] was below 0.02 in each case.

Turning to `[2H]C([2H])([2H])Oc1cc(C(=O)Nc2cc3c(cc2Oc2cc(C)cc(C)c2)C(=O)N[C@@H](CC(=O)N(OC([2H])([2H])[2H])C([2H])([2H])[2H])C(=O)N3)c(Br)c(OC([2H])([2H])[2H])c1OC([2H])([2H])[2H]`, the 50% growth inhibitory concentration (GI50) in series [13] was below 5 nM; in series [14], below 5 nM; in [15] it was below 5 nM; in series [18], below 1 nM; in series [19] it was below 1 nM; in series [20], 2.12 nM. In [21], the GI50 was 9.47 nM. Besides, the hepatocyte CLint in series [22] was determined as 8.5 µL/min/1e6 cells. Moreover, the figures for the IC50 in series [23] and in series [24] were 1420 nM and 4700 nM, respectively.
